These results are taken from patent publication US9441023B2, “Peptide YY analogs” (GlaxoSmithKline Intellectual Property Development Limited, priority 2013, dated 2016).

Experiment [1] is described as follows: cumulative food intake, lean mice (Model A), BioDaQ system. Format: in vivo. Particulars: Table 1; lean male C57BL/6 mice, 1 mg/kg s.c., cumulative food intake after 6 h, relative to vehicle; negative = reduction. On the procedure: (§1) Cumulative food intake after 6 h was determined for the PYY analogs in either lean (Model A) or diet-induced obese (DIO) (Model B) C57BL/6 mice in a BioDaQ system for continuous monitoring of food intake (Research Diets Inc., New Brunswick, N.J.). […] Mice were placed singly into the BioDaQ cages and acclimatized for a minimum of 6 days and were allowed ad libitum access to food and water. Approximately 1 hour prior to lights-out, animals were dosed subcutaneously with either vehicle (20 mM Acetate buffer, pH 4.9 or 20% DMSO in water) or analogs dissolved in vehicle (1 mg/kg) (8 animals per group). Once all animals have been dosed, feeder gates were opened providing ad-libitum access to food. Continuous food intake was monitored and collected for 15 hours. […] P-values <0.05 were considered to indicate a significant difference between treatment groups.

In experiment [2] the target is T1, human Neuropeptide Y receptor type 2 (Homo sapiens, UniProt P49146).
T1 construct: expressed in transfected cells; host or cells: melanophores (own knowledge: Xenopus laevis melanophores transfected with the receptor, as in the cited protocol)
T1 sequence (P49146 1-381): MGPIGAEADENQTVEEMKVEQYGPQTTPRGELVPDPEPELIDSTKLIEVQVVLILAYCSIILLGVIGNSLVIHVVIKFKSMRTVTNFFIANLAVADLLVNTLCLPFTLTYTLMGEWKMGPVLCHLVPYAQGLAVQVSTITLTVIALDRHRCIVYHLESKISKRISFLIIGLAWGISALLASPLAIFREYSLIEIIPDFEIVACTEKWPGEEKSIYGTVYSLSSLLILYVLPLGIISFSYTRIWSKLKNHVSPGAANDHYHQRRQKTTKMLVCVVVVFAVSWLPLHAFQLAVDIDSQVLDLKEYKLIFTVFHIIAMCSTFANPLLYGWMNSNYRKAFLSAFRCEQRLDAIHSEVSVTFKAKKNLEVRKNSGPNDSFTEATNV
The experiment in a line: melanophore assay, potency at human Neuropeptide Y receptor type 2. Format: cell-based. Particulars: Table 1, read-out: hNPY Y2 pEC50 (converted).

Experiment [3] in a line: chronic (41 days) efficacy study in DIO Long Evans rats: body weight, body composition, food intake. Format: in vivo, Long Evans rat. Particulars: DIO LE rats. On the procedure: Rats were 17 weeks old at the start of the study. The rats were housed 1 per cage and given ad libitum access to TD.95217 chow and water, maintained on a 12 h light/dark cycle from 5:00 AM to 5:00 PM at 21° C. and 50% relative humidity and allowed to acclimate for at least 7 days prior to baseline measurements. Baseline fat mass and non-fat mass measurements were taken 3 days before the start of peptide infusion and on day 40 of treatment using a QMR instrument (Echo Medical Systems, Houston, Tex.). […] Each rat was implanted with two osmotic pumps subcutaneously in the scapula region containing vehicle or peptide according to their treatment group. Body weight and food intake were measured twice per week beginning three days before the 41-day treatment period. On day 41 of treatment, whole blood was collected by cardiac stick under isoflurane anesthesia. Plasma and serum were then prepared from the whole blood for serum chemistry analysis. All the data are presented as mean±SEM. The data were analyzed in either Prism (GraphPad Software, Inc., La Jolla, Calif.) or Excel using a Student's T-test to compare each group to the appropriate control group. P-values <0.05 were considered to indicate a significant difference between treatment groups.

The nature of experiment [4]: chronic (26 days) efficacy study in diabetic ZDF rats: glucose and HbA1c. The class given is in vivo, Zucker Diabetic Fatty (ZDF) rat. The text has this: Male ZDF rats were 12 weeks old at the start of the study (Charles River, Inc., Boston, Mass.). […] Baseline fat mass and non-fat mass measurements were taken 3 days before the start of peptide infusion and on day 26 of treatment using a QMR instrument (Echo Medical Systems, Houston, Tex.). […] P-values <0.05 were considered to indicate a significant difference between treatment groups.

A short description of experiment [5]: cumulative food intake, diet-induced obese mice (Model B), BioDaQ system. Format: in vivo. The settings on record: Table 1; DIO male C57BL/6 mice, 1 mg/kg s.c., cumulative food intake after 6 h, relative to vehicle; negative = reduction. On the procedure: as §1
The mark [6] stands for this setting: s.c. infusion, used as study dose.

For the molecule `CC(C)C[C@H](NC(=O)[C@H](CC(=O)O)NC(=O)[C@H](C)NC(=O)[C@H](Cc1ccc(O)cc1)NC(=O)[C@H](Cc1ccc(O)cc1)NC(=O)[C@H](CCCNC(=N)N)NC(=O)[C@H](CC(N)=O)NC(=O)[C@H](Cc1c[nH]c2ccccc12)NC(=O)[C@H](CCC(=O)O)NC(=O)[C@H](CCC(=O)O)NC(=O)[C@@H]1CCCN1C(=O)[C@H](CO)NC(=O)[C@H](C)NC(=O)[C@H](CC(=O)O)NC(=O)[C@H](CCCCN)NC(=O)CNC(=O)[C@@H]1CCCN1C(=O)[C@H](C)NC(=O)[C@H](CCC(=O)O)NC(=O)[C@@H]1CCCN1C(=O)[C@H](CCCCN)NC(=O)[C@@H]1CCCN1)C(=O)N[C@@H](CCCNC(=N)N)C(=O)N[C@@H](CCCCN)C(=O)N[C@@H](Cc1ccc(O)cc1)C(=O)N[C@@H](CC(C)C)C(=O)N[C@@H](CC(N)=O)C(=O)N[C@@H](Cc1c[nH]c2ccccc12)C(=O)N[C@@H](CC(C)C)C(=O)N[C@H](C(=O)N[C@@H](CCCNC(=N)N)C(=O)N[C@@H](CCC(N)=O)C(=O)N[C@@H](CCCNC(=N)N)C(=O)N[C@@H](Cc1ccc(O)cc1)C(N)=O)[C@@H](C)O` [Example 4], the “% reduction in food intake, model A” value in experiment [1] was −83%. The EC50 in experiment [2] is 0.02 nM.

As for PYY(3-36)NH2, the “weight loss vs. vehicle” value in experiment [3] (40 days, s.c. osmotic pumps, ED50 doses) is given as −1.3%. Further, the “inhibition of cumulative food intake” value in experiment [3] (chronic infusion, vs. vehicle control) is given as −0.7%. In addition, the ΔΔGlucose in experiment [4] (26 days, change from baseline and vehicle control, ED20 doses) was −33.1 ± 17^ mg/dL.

Regarding exendin-4, in experiment [3] (setting [6]), the “ED50 for weight loss” value is reported as 0.15 mg/kg/day. In addition, in experiment [4] (setting [6]), the “ED20 for HbA1c lowering” value worked out at 0.0055 mg/kg/day.

As for `CC(C)C[C@H](NC(=O)[C@H](CO)NC(=O)[C@H](C)NC(=O)[C@H](Cc1ccc(O)cc1)NC(=O)[C@H](Cc1ccc(O)cc1)NC(=O)[C@H](CCCNC(=N)N)NC(=O)[C@H](CC(N)=O)NC(=O)[C@H](CC(C)C)NC(=O)[C@H](CCC(=O)O)NC(=O)[C@H](CCC(=O)O)NC(=O)[C@@H]1CCCN1C(=O)[C@H](CO)NC(=O)[C@H](C)NC(=O)[C@H](CC(=O)O)NC(=O)[C@H](CCCCN)NC(=O)CNC(=O)[C@@H]1CCCN1C(=O)[C@H](C)NC(=O)[C@H](CCC(=O)O)NC(=O)[C@@H]1CCCN1C(=O)[C@H](CCCCN)NC(=O)[C@@H]1CCCN1)C(=O)N[C@@H](CCCNC(=N)N)C(=O)N[C@@H](CCCCN)C(=O)N[C@@H](Cc1ccc(O)cc1)C(=O)N[C@@H](CC(C)C)C(=O)N[C@@H](CC(N)=O)C(=O)N[C@@H](Cc1c[nH]c2ccccc12)C(=O)N[C@@H](CC(C)C)C(=O)N[C@H](C(=O)N[C@@H](CCCNC(=N)N)C(=O)N[C@@H](CCC(N)=O)C(=O)N[C@@H](CCCNC(=N)N)C(=O)N[C@@H](Cc1ccc(O)cc1)C(N)=O)[C@@H](C)O` [Example 2], in experiment [1], the “% reduction in food intake, model A” value is recorded as −50%.

On to `CC(C)C[C@H](NC(=O)[C@H](CO)NC(=O)[C@H](C)NC(=O)[C@H](Cc1ccc(O)cc1)NC(=O)[C@H](Cc1ccc(O)cc1)NC(=O)[C@H](CCCNC(=N)N)NC(=O)[C@H](CC(N)=O)NC(=O)[C@H](Cc1c[nH]c2ccccc12)NC(=O)[C@H](CCC(=O)O)NC(=O)[C@H](CCC(=O)O)NC(=O)[C@@H]1CCCN1C(=O)[C@H](CO)NC(=O)[C@H](C)NC(=O)[C@H](CC(=O)O)NC(=O)[C@H](CCCCN)NC(=O)CNC(=O)[C@@H]1CCCN1C(=O)[C@H](Cc1c[nH]cn1)NC(=O)[C@H](CCC(=O)O)NC(=O)[C@@H]1CCCN1C(=O)[C@H](CCCCN)NC(=O)[C@@H]1CCCN1)C(=O)N[C@@H](CCCNC(=N)N)C(=O)N[C@@H](CCCCN)C(=O)N[C@@H](Cc1ccc(O)cc1)C(=O)N[C@@H](CC(C)C)C(=O)N[C@@H](CC(N)=O)C(=O)N[C@@H](Cc1c[nH]c2ccccc12)C(=O)N[C@H](C(=O)N[C@H](C(=O)N[C@@H](CCCNC(=N)N)C(=O)N[C@@H](CCC(N)=O)C(=O)N[C@@H](CCCNC(=N)N)C(=O)N[C@@H](Cc1ccc(O)cc1)C(N)=O)[C@@H](C)O)C(C)C` [Example 25], for which the “% reduction in food intake, model B” value in experiment [5] is given as −68%.
